# Measured values taken from patent US20250255867A1 (Kadmon Corporation, LLC, priority 2022, published 2025).
# Conditions: Cohort 3 400 mg QD
compound,measurement,value
"CC(C)NC(=O)COc1cccc(-c2nc(Nc3ccc4[nH]ncc4c3)c3ccccc3n2)c1 [Belumosudil, 2-{3-[4-(1H-indazol-5-ylamino)-2-quinazolinyl]phenoxy}-N-(propan-2-yl) acetamide]",Renal failure: Affected/At Risk,0/21
same,Renal failure: Affected/At Risk (%),(0%)
same,Respiratory syncytial virus infection: # Events,3
same,Respiratory syncytial virus infection: Affected/At Risk,2/21
same,Respiratory syncytial virus infection: Affected/At Risk (%),(9.52%)
same,Respiratory tract infection fungal: # Events,0
same,Respiratory tract infection fungal: Affected/At Risk,0/21
same,Respiratory tract infection fungal: Affected/At Risk (%),(0%)
same,Respiratory tract infection: # Events,0
same,Respiratory tract infection: Affected/At Risk,0/21
same,Respiratory tract infection: Affected/At Risk (%),(0%)
same,Restless legs syndrome: # Events,0
same,Restless legs syndrome: Affected/At Risk,0/21
same,Restless legs syndrome: Affected/At Risk (%),(0%)
same,Rosacea: # Events,0
same,Rosacea: Affected/At Risk,0/21
same,Rosacea: Affected/At Risk (%),(0%)
same,"SAE Abdominal wall haematoma, # events",1
same,"SAE Abdominal wall haematoma, affected/at risk",1/21
same,"SAE Acute kidney injury, # events",0
same,"SAE Acute kidney injury, affected/at risk",0/21
same,"SAE Acute lymphocytic leukaemia recurrent, # events",1
same,"SAE Acute lymphocytic leukaemia recurrent, affected/at risk",1/21
same,"SAE Acute respiratory failure, # events",0
same,"SAE Acute respiratory failure, affected/at risk",0/21
same,"SAE Anaphylactic reaction, # events",0
same,"SAE Anaphylactic reaction, affected/at risk",0/21
same,"SAE Bacteraemia, # events",0
same,"SAE Bacteraemia, affected/at risk",0/21
same,"SAE Cardiac arrest, # events",1
same,"SAE Cardiac arrest, affected/at risk",1/21
same,"SAE Cellulitis, # events",0
same,"SAE Cellulitis, affected/at risk",0/21
same,"SAE Chronic graft versus host disease in skin, # events",0
same,"SAE Chronic graft versus host disease in skin, affected/at risk",0/21
same,"SAE Citrobacter infection, # events",0
same,"SAE Citrobacter infection, affected/at risk",0/21
same,"SAE Dyspnoea, # events",3
same,"SAE Dyspnoea, affected/at risk",3/21
same,"SAE Embolism, # events",0
same,"SAE Embolism, affected/at risk",0/21
same,"SAE Febrile neutropenia, # events",1
same,"SAE Febrile neutropenia, affected/at risk",1/21
same,"SAE Graft versus host disease in lung, # events",1
same,"SAE Graft versus host disease in lung, affected/at risk",1/21
same,"SAE Hypoxia, # events",2
same,"SAE Hypoxia, affected/at risk",2/21
same,"SAE Influenza A virus test positive, # events",0
same,"SAE Influenza A virus test positive, affected/at risk",0/21
same,"SAE Influenza like illness, # events",2
same,"SAE Influenza like illness, affected/at risk",2/21
same,"SAE Lacunar infarction, # events",0
same,"SAE Lacunar infarction, affected/at risk",0/21
same,"SAE Leukaemia recurrent, # events",1
same,"SAE Leukaemia recurrent, affected/at risk",1/21
same,"SAE Lipomatosis, # events",0
same,"SAE Lipomatosis, affected/at risk",0/21
same,"SAE Metastases to meninges, # events",0
same,"SAE Metastases to meninges, affected/at risk",0/21
same,"SAE Muscular weakness, # events",0
same,"SAE Muscular weakness, affected/at risk",0/21
same,"SAE Myelodysplastic syndrome, # events",1
same,"SAE Myelodysplastic syndrome, affected/at risk",1/21
same,"SAE Non-cardiac chest pain, # events",0
same,"SAE Non-cardiac chest pain, affected/at risk",0/21
same,"SAE Obliterative bronchiolitis, # events",0
same,"SAE Obliterative bronchiolitis, affected/at risk",0/21
same,"SAE Pericardial effusion, # events",1
same,"SAE Pericardial effusion, affected/at risk",1/21
same,"SAE Pleural effusion, # events",1
same,"SAE Pleural effusion, affected/at risk",1/21
same,"SAE Pneumonia viral, # events",1
same,"SAE Pneumonia viral, affected/at risk",1/21
same,"SAE Pneumonia, # events",3
same,"SAE Pneumonia, affected/at risk",3/21
same,"SAE Pregnancy of partner, # events",1
same,"SAE Pregnancy of partner, affected/at risk",1/21
same,"SAE Proteinuria, # events",0
same,"SAE Proteinuria, affected/at risk",0/21
same,"SAE Respirovirus test positive, # events",0
same,"SAE Respirovirus test positive, affected/at risk",0/21
same,"SAE Small intestinal obstruction, # events",1
same,"SAE Small intestinal obstruction, affected/at risk",1/21
same,"SAE Stenotrophomonas infection, # events",0
same,"SAE Stenotrophomonas infection, affected/at risk",0/21
same,"SAE Urinary retention, # events",1
same,"SAE Urinary retention, affected/at risk",1/21
same,"SAE Urinary tract infection, # events",0
same,"SAE Urinary tract infection, affected/at risk",0/21
same,"SAE Varicella zoster virus infection, # events",1
same,"SAE Varicella zoster virus infection, affected/at risk",1/21
same,"SAE total, affected/at risk",13/21
same,Sinus pain: # Events,0
same,Sinus pain: Affected/At Risk,0/21
same,Sinus pain: Affected/At Risk (%),(0%)
same,Sinusitis: # Events,1
same,Sinusitis: Affected/At Risk,1/21
same,Sinusitis: Affected/At Risk (%),(4.76%)
same,Skin abrasion: # Events,2
same,Skin abrasion: Affected/At Risk,2/21
same,Skin abrasion: Affected/At Risk (%),(9.52%)
same,Skin lesion: # Events,0
same,Skin lesion: Affected/At Risk,0/21
same,Skin lesion: Affected/At Risk (%),(0%)
same,Skin papilloma: # Events,0
same,Skin papilloma: Affected/At Risk,0/21
same,Skin papilloma: Affected/At Risk (%),(0%)
same,Spinal compression fracture: # Events,0
same,Spinal compression fracture: Affected/At Risk,0/21
same,Spinal compression fracture: Affected/At Risk (%),(0%)
same,Squamous cell carcinoma of skin: # Events,0
same,Squamous cell carcinoma of skin: Affected/At Risk,0/21
same,Squamous cell carcinoma of skin: Affected/At Risk (%),(0%)
same,Stomatitis: # Events,1
same,Stomatitis: Affected/At Risk,1/21
same,Stomatitis: Affected/At Risk (%),(4.76%)
same,Superior vena cava syndrome: # Events,0
same,Superior vena cava syndrome: Affected/At Risk,0/21
same,Superior vena cava syndrome: Affected/At Risk (%),(0%)
same,Tachycardia: # Events,2
same,Tachycardia: Affected/At Risk,2/21
same,Tachycardia: Affected/At Risk (%),(9.52%)
same,Tendonitis: # Events,0
same,Tendonitis: Affected/At Risk,0/21
same,Tendonitis: Affected/At Risk (%),(0%)
same,Testicular pain: # Events,0
same,Testicular pain: Affected/At Risk,0/21
same,Testicular pain: Affected/At Risk (%),(0%)
same,Testicular swelling: # Events,0
same,Testicular swelling: Affected/At Risk,0/21
same,Testicular swelling: Affected/At Risk (%),(0%)
same,Thoracic spinal stenosis: # Events,0
same,Thoracic spinal stenosis: Affected/At Risk,0/21
same,Thoracic spinal stenosis: Affected/At Risk (%),(0%)
same,Thrombocytopenia: # Events,1
same,Thrombocytopenia: Affected/At Risk,1/21
same,Thrombocytopenia: Affected/At Risk (%),(4.76%)
